Data taken from patent publication US11440906B2, “Biguanide derivatives and their rearrangement products for use in the treatment of cancer” (CENTRE NATIONAL DE LA RECHERCHE SCIENTIFIQUE, priority 2017, dated 2022).
Where two headings read alike, the source gives them in different places.

System: A375 Sensitive cells
Test: Viability test, trypan blue exclusion, A375 Sensitive cells
Type: cell-based, human
Conditions: Homo sapiens, A-375, viable cells as percentage of DMSO control
Description: Different melanoma cell lines were purchased from the American Tissue Culture Collection: A375 and WM9 cells are mutated on B-Raf, CDKN2A and PTEN proteins; SKmel28 cells are mutated on B-Raf and P53 proteins; 1205Lu cells are mutated on B-Raf and PTEN proteins; G-361 cells are mutated on B-Raf and CDKN2A proteins; C8161 cells are mutated on B-Raf and K-Ras proteins; WM3912 cells are mutated on B-Raf and CDKN2A proteins; MeWo cells are mutated on P53 and CDKN2A proteins; WM3918 presents no mutations on characteristic proteins.
For trypan blue staining, […] of cells (melanoma and normal human cells) were aseptically transferred to a 1.5 mL clear Eppendorf tube and incubated for 3 min at room temperature with an equal volume of 0.4% trypan blue solution. Viable cells were counted and the results are expressed as the percentage of the value of control cells. All the experiments are performed 3 times in triplicate.
A375 Sensitive cells were treated with different concentrations of the synthesized molecules (5.0 μM or 10 μM) for different times (24 hr or 48 hr) or with DMSO (Control) for 12 or 48 hr. At the end of the stimulation, viable cells were counted using the trypan blue dye exclusion method. The results are normalized as percentages compare to the control.
A375 Sensitive cells were treated with 5 μM of CRO15 for different times (2 hr, 4 hr, 6 hr, 8 hr, 12 hr, 24 hr or 48 hr) or with 5 μM of PLX4032 (B-Raf inhibitor) for 48 hr or with DMSO (Control) for 48 hr. At the end of stimulation, viable cells were counted using the trypan blue dye exclusion method. The results are normalized as percentages compare to the control and data means±SEM of three independent experiments performed in triplicate *p<0.05; **p<0.01; ***p<0.001.
A375 Sensitive cells were treated with different concentrations of CRO15 (0.5 μM, 2.5 μM, 5.0 μM, 7.5 μM, 50 μM) for 48 hr or with 5 μM of PLX4032 (B-Raf inhibitor) for 48 hr or with DMSO (Control) for 48 hr. At the end of the stimulation, viable cells were counted using the trypan blue dye exclusion method. The results are normalized as percentages compare to the control and data means±SEM of three independent experiments performed in triplicate *p<0.05; **p<0.01; ***p<0.001.
A375 sensitive and resistant melanoma cells were treated with 5 μM of CRO15 for 48 hr or with 5 μM of PLX4032 for 48 hr or with DMSO (Control). At 48 hours, viable cells were counted using the trypan blue dye exclusion method. The results are normalized as percentages compare to the control and data means±SEM of three independent experiments performed in triplicate *p<0.05; **p<0.01; ***p<0.001.

[1] = 24 h, read-out: Viab A375 5 μM/ 24 h
[2] = 48 h, read-out: Viab A375 5 μM/ 48 h
[3] = 24 h, read-out: Viab A375 10 μM/ 24 h
[4] = 48 h, read-out: Viab A375 10 μM/ 48 h

| Structure (SMILES) | viability at 5 µM [1] [%] | viability at 5 µM [2] [%] | viability at 10 µM [3] [%] | viability at 10 µM [4] [%] |
| --- | --- | --- | --- | --- |
| CSc1ccccc1Nc1nc(N)nc(C(Cl)(Cl)Cl)n1 [MTF 316, N2-(2-(methylthio)phenyl)-6-(trichloromethyl)-1,3,5-triazine-2,4-diamine] | 124 | 69.6 | 104 | 48.2 |
| CSc1ccccc1Nc1nc(N)nc(C(Cl)Cl)n1 [MTF 317, 6-(dichloromethyl)-N2-(2-(methylthio)phenyl)-1,3,5-triazine-2,4-diamine] | 106 | 58.7 | 109 | 70 |
| COc1cccc(-c2nc(N)nc(Nc3ccccc3SSc3ccccc3Nc3nc(N)nc(-c4cccc(OC)c4)n3)n2)c1 [MTF 318] | 74.1 | 21.6 | 20.5 | 6.3 |
| Nc1nc(Nc2ccccc2SSc2ccccc2Nc2nc(N)nc(-c3cccc(F)c3)n2)nc(-c2cccc(F)c2)n1 [MTF 320] | 18.3 | 11.5 | 10.8 | 8.5 |
| Nc1nc(Nc2ccccc2SSc2ccccc2Nc2nc(N)nc(-c3ccccn3)n2)nc(-c2ccccn2)n1 [MTF 321, N2,N2′-(disulfanediylbis(2,1-phenylene))bis(6-(pyridin-2-yl)-1,3,5-triazine-2,4-diamine)] | 59.7 | 34.5 | 53.8 | 32.1 |
| Nc1nc(Nc2ccccc2SSc2ccccc2Nc2nc(N)nc(-c3cccc(Cl)c3)n2)nc(-c2cccc(Cl)c2)n1 [MTF 322, N2,N2′-(disulfanediylbis(2,1-phenylene))bis(6-(3-chlorophenyl)-1,3,5-triazine-2,4-diamine)] | 57.4 | 12.1 | 26.9 | 5.7 |
| Nc1nc(Nc2ccccc2SSc2ccccc2Nc2nc(N)nc(-c3cccc(Br)c3)n2)nc(-c2cccc(Br)c2)n1 [MTF 323, N2,N2′-(disulfanediylbis(2,1-phenylene))bis(6-(3-bromophenyl)-1,3,5-triazine-2,4-diamine)] | 34.6 | 23.5 | 47.4 | 8.3 |
| COc1ccc(-c2nc(N)nc(Nc3ccccc3SSc3ccccc3Nc3nc(N)nc(-c4ccc(OC)cc4)n3)n2)cc1 [MTF 324, N2,N2′-(disulfanediylbis(2,1-phenylene))bis(6-(4-methoxyphenyl)-1,3,5-triazine-2,4-diamine)] | 44.1 | 13.3 | 12.9 | 8.2 |
| N#Cc1cccc(-c2nc(N)nc(Nc3ccccc3SSc3ccccc3Nc3nc(N)nc(-c4cccc(C#N)c4)n3)n2)c1 [MTF 325, 3,3′-(((disulfanediylbis(2,1-phenylene))bis(azanediyl))bis(6-amino-1,3,5-triazine-4,2-diyl))dibenzonitrile] | 58.1 | 30.9 | 71 | 29.7 |
| Nc1nc(Nc2ccccc2SSc2ccccc2Nc2nc(N)nc(-c3ccccc3)n2)nc(-c2ccccc2)n1 [MTF 326, N2,N2′-(disulfanediylbis(2,1-phenylene))bis(6-phenyl-1,3,5-triazine-2,4-diamine)] | 27.4 | 27.9 | 12.9 | 6.7 |
| Nc1nc(Nc2ccccc2SSc2ccccc2Nc2nc(N)nc(-c3ccc(Cl)cc3)n2)nc(-c2ccc(Cl)cc2)n1 [MTF 327, N2,N2′-(disulfanediylbis(2,1-phenylene))bis(6-(4-chlorophenyl)-1,3,5-triazine-2,4-diamine)] | 19.4 | 14.5 | 23.7 | 14.5 |
| Nc1nc(Nc2ccccc2SSc2ccccc2Nc2nc(N)nc(-c3ccc(I)cc3)n2)nc(-c2ccc(I)cc2)n1 [MTF 328, N2,N2′-(disulfanediylbis(2,1-phenylene))bis(6-(4-iodophenyl)-1,3,5-triazine-2,4-diamine)] | 50 | 9.4 | 27.8 | 3.4 |
| Nc1nc(Nc2ccccc2SSc2ccccc2Nc2nc(N)nc(-c3ccncc3)n2)nc(-c2ccncc2)n1 [MTF 329, N2,N2′-(disulfanediylbis(2,1-phenylene))bis(6-(pyridin-4-yl)-1,3,5-triazine-2,4-diamine)] | 96.2 | 69.7 | 74.2 | 22.5 |
| Nc1nc(Nc2ccccc2SSc2ccccc2Nc2nc(N)nc(-c3cccnc3)n2)nc(-c2cccnc2)n1 [MTF 330, N2,N2′-(disulfanediylbis(2,1-phenylene))bis(6-(pyridin-3-yl)-1,3,5-triazine-2,4-diamine)] | 123 | 73.9 | 60.1 | 41.6 |
| Nc1nc(Nc2ccccc2O)nc(-c2cccc(Br)c2)n1 [MTF 331, 2-((4-amino-6-(3-bromophenyl)-1,3,5-triazin-2-yl)amino)phenol] | 104 | 82.9 | 151 | 77.4 |
| Nc1nc(Nc2ccccc2O)nc(-c2cccc(Cl)c2)n1 [MTF 332, 2-((4-amino-6-(3-chlorophenyl)-1,3,5-triazin-2-yl)amino)phenol] | 122 | 87.6 | 104 | 65.4 |
| Nc1nc(Cc2ccccc2)nc(Nc2ccccc2SSc2ccccc2Nc2nc(N)nc(Cc3ccccc3)n2)n1 [MTF 333] | 94.9 | 35.4 | 28.7 | 24.1 |
| COc1cccc(C(=N)NC(=N)Nc2nc3ccccc3s2)c1 [MTF 342, N—(N-(benzo[d]thiazol-2-yl)carbamimidoyl)-3-methoxybenzimidamide] | 48.6 | 8.6 | 32.2 | 8.6 |
| N=C(NC(=N)c1cccc(C(F)(F)F)c1)Nc1nc2ccccc2s1 [MTF 343, N—(N-(benzo[d]thiazol-2-yl)carbamimidoyl)-3-(trifluoromethyl)benzimidamide] | 67.7 | 52.9 | 34.8 | 24.1 |
| CCOc1cccc(C(=N)NC(=N)Nc2nc3ccccc3s2)c1 [MTF 344, N—(N-(benzo[d]thiazol-2-yl)carbamimidoyl)-3-ethoxybenzimidamide] | 84.3 | 26.1 | 38.7 | 26.1 |
| N=C(NC(=N)c1cnccn1)Nc1nc2ccccc2s1 [MTF 345, N—(N-(benzo[d]thiazol-2-yl)carbamimidoyl)pyrazine-2-carboximidamide] | 25.9 | 1.8 | 17.1 | 1 |
| N=C(NC(=N)c1cccc(F)c1)Nc1nc2ccccc2s1 [MTF 346, N—(N-(benzo[d]thiazol-2-yl)carbamimidoyl)-3-fluorobenzimidamide] | 66.9 | 10.6 | 43.2 | 12.9 |
| N#Cc1cccc(C(=N)NC(=N)Nc2nc3ccccc3s2)c1 [MTF 347, N—(N-(benzo[d]thiazol-2-yl)carbamimidoyl)-3-cyanobenzimidamide] | 26.9 | 6.6 | 27.6 | 6.8 |
| Nc1nc(Nc2ccccc2SSc2ccccc2Nc2nc(N)nc(-c3cnccn3)n2)nc(-c2cnccn2)n1 [MTF 348, N2,N2′-(disulfanediylbis(2,1-phenylene))bis(6-(pyrazin-2-yl)-1,3,5-triazine-2,4-diamine)] | 102 | 79.6 | 110 | 35.8 |
